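Results reflect a 48-hour exposure of cells in 96-well plates to compound at five concentrations. GI50 marks 50% less growth.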 The source made the active and inactive calls. Rule as the data show it: active = GI50 up to about 1.1 µM and inactive = higher.
Experiments:
Assay in all cases: NCI-60 cell line screen, 48 h
A498 = test system: A498
ACHN = test system: ACHN
CAKI-1 = test system: CAKI-1
DU-145 = test system: DU-145
HCC 2998 = test system: HCC 2998
HT-29 = test system: HT-29
Hs-578T = test system: Hs-578T
K562 = test system: K562
KM12 = test system: KM12
MCF7 = test system: MCF7
MDA-MB-231 = test system: MDA-MB-231
MOLT-4 = test system: MOLT-4
NCI-H226 = test system: NCI-H226
NCI-H23 = test system: NCI-H23
NCI/ADR-RES = test system: NCI/ADR-RES
SK-MEL-2 = test system: SK-MEL-2
SK-OV-3 = test system: SK-OV-3
SN12C = test system: SN12C
SNB-19 = test system: SNB-19
UACC-257 = test system: UACC-257

Structure (SMILES)	GI50 (A498)	GI50 (ACHN)	GI50 (CAKI-1)	GI50 (DU-145)	GI50 (HCC 2998)	GI50 (HT-29)	GI50 (Hs-578T)	GI50 (K562)	GI50 (KM12)	GI50 (MCF7)	GI50 (MDA-MB-231)	GI50 (MOLT-4)	GI50 (NCI-H226)	GI50 (NCI-H23)	GI50 (NCI/ADR-RES)	GI50 (SK-MEL-2)	GI50 (SK-OV-3)	GI50 (SN12C)	GI50 (SNB-19)	GI50 (UACC-257)
CCOC(=O)/C(C(=O)Nc1ccc(Cl)cc1)=C(/N)N1CCOCC1	> 100 µM (inactive)	> 100 µM (inactive)	> 100 µM (inactive)	> 100 µM (inactive)	> 100 µM (inactive)	> 100 µM (inactive)	> 100 µM (inactive)	> 100 µM (inactive)	> 100 µM (inactive)	> 100 µM (inactive)	> 100 µM (inactive)	> 100 µM (inactive)	> 100 µM (inactive)	> 100 µM (inactive)	> 100 µM (inactive)	> 100 µM (inactive)	> 100 µM (inactive)	> 100 µM (inactive)	> 100 µM (inactive)	> 100 µM (inactive)
O=C(OC1C#CCSCC#C/C=C\1)c1ccc2c(c1)C(=O)c1ccccc1C2=O (stereo not given)	33.3 µM (inactive)	55 µM (inactive)	37.5 µM (inactive)	> 100 µM (inactive)	> 100 µM (inactive)	> 100 µM (inactive)	24.2 µM (inactive)	> 100 µM (inactive)	> 100 µM (inactive)	41.2 µM (inactive)	26.2 µM (inactive)	81.7 µM (inactive)	48.8 µM (inactive)	40.7 µM (inactive)	78.9 µM (inactive)	35.8 µM (inactive)	18.1 µM (inactive)	> 100 µM (inactive)	23.6 µM (inactive)	> 100 µM (inactive)
Cc1cc(S(=O)(=O)Nc2nc3ccccc3nc2-c2cccc([N+](=O)[O-])c2)c(S)cc1Cl	14.4 µM (inactive)	27.8 µM (inactive)	18.3 µM (inactive)	18.5 µM (inactive)	18.8 µM (inactive)	17.9 µM (inactive)	23.6 µM (inactive)	26 µM (inactive)	15.6 µM (inactive)	24 µM (inactive)	58.5 µM (inactive)	22.6 µM (inactive)	21.4 µM (inactive)	17.1 µM (inactive)	19.9 µM (inactive)	21.9 µM (inactive)	16.6 µM (inactive)	30 µM (inactive)	16.5 µM (inactive)	18.1 µM (inactive)
Cc1c(-c2ccc(-c3ccccc3F)cc2)nc2ccc(F)cc2c1C(=O)O [BREQUINAR SODIUM]	49.8 µM (inactive)	0.153 µM (active)	0.904 µM (active)	0.262 µM (active)	9.62 µM (inactive)	0.374 µM (active)	6.93 µM (inactive)	0.143 µM (active)	0.211 µM (active)	0.267 µM (active)	9.93 µM (inactive)	0.0887 µM (active)	19.5 µM (inactive)	21.5 µM (inactive)	2.18 µM (inactive)	61.8 µM (inactive)	16.1 µM (inactive)	1.79 µM (inactive)	1.25 µM (inactive)	12.5 µM (inactive)
Nc1nc(=O)c(/N=N/c2ccc([As](=O)(O)O)cc2)c(N)[nH]1	> 100 µM (inactive)	> 100 µM (inactive)	> 100 µM (inactive)	> 100 µM (inactive)	> 100 µM (inactive)	> 100 µM (inactive)	> 100 µM (inactive)	> 100 µM (inactive)	> 100 µM (inactive)	> 100 µM (inactive)	> 100 µM (inactive)	> 100 µM (inactive)	> 100 µM (inactive)	> 100 µM (inactive)	> 100 µM (inactive)	> 100 µM (inactive)	> 100 µM (inactive)	> 100 µM (inactive)	> 100 µM (inactive)	> 100 µM (inactive)
O=C1CC2(CCNCC2)C(=O)N1N1CCCCC1	> 100 µM (inactive)	> 100 µM (inactive)	> 100 µM (inactive)	> 100 µM (inactive)	> 100 µM (inactive)	> 100 µM (inactive)	> 100 µM (inactive)	> 100 µM (inactive)	> 100 µM (inactive)	> 100 µM (inactive)	> 100 µM (inactive)	> 100 µM (inactive)	> 100 µM (inactive)	> 100 µM (inactive)	> 100 µM (inactive)	> 100 µM (inactive)	> 100 µM (inactive)	> 100 µM (inactive)	> 100 µM (inactive)	> 100 µM (inactive)
O=C1CCCCc2cccc(O)c21	> 100 µM (inactive)	> 100 µM (inactive)	> 100 µM (inactive)	> 100 µM (inactive)	> 100 µM (inactive)	> 100 µM (inactive)	> 100 µM (inactive)	> 100 µM (inactive)	> 100 µM (inactive)	> 100 µM (inactive)	> 100 µM (inactive)	> 100 µM (inactive)	> 100 µM (inactive)	> 100 µM (inactive)	> 100 µM (inactive)	> 100 µM (inactive)	> 100 µM (inactive)	> 100 µM (inactive)	> 100 µM (inactive)	> 100 µM (inactive)
CC(=O)N(C(C)=O)n1c(Cc2ccc(C)cc2)nn(C(C)=O)c1=O	> 100 µM (inactive)	> 100 µM (inactive)	> 100 µM (inactive)	> 100 µM (inactive)	> 100 µM (inactive)	> 100 µM (inactive)	> 100 µM (inactive)	> 100 µM (inactive)	> 100 µM (inactive)	> 100 µM (inactive)	> 100 µM (inactive)	> 100 µM (inactive)	> 100 µM (inactive)	> 100 µM (inactive)	> 100 µM (inactive)	> 100 µM (inactive)	> 100 µM (inactive)	> 100 µM (inactive)	> 100 µM (inactive)	> 100 µM (inactive)
C[n+]1ccn2c3nc4ccccc4nc3c([O-])c(C#N)c21	> 100 µM (inactive)	> 100 µM (inactive)	> 100 µM (inactive)	> 100 µM (inactive)	> 10 µM (inactive)	> 100 µM (inactive)	> 100 µM (inactive)	> 100 µM (inactive)	> 10 µM (inactive)	88.9 µM (inactive)	> 100 µM (inactive)	> 100 µM (inactive)	> 100 µM (inactive)	> 100 µM (inactive)	> 34.2 µM (inactive)	> 4.65 µM (inactive)	> 100 µM (inactive)	> 100 µM (inactive)	> 100 µM (inactive)	> 100 µM (inactive)
CC1=CC(=O)c2ccc(C)cc2C1=O [CHIMAPHILIN]	17.6 µM (inactive)	7.45 µM (inactive)	5.78 µM (inactive)	16.8 µM (inactive)	19.8 µM (inactive)	38.6 µM (inactive)	20.5 µM (inactive)	3.65 µM (inactive)	5.96 µM (inactive)	3.05 µM (inactive)	11.6 µM (inactive)	2.41 µM (inactive)	13.8 µM (inactive)	5.22 µM (inactive)	10.4 µM (inactive)	16.2 µM (inactive)	16.9 µM (inactive)	19.1 µM (inactive)	16.1 µM (inactive)	12.9 µM (inactive)
CCOC(=O)c1ccc(/N=C2\SC(=S)N(c3ccc(F)cc3)\C2=N/c2ccc(C(=O)OCC)cc2)cc1	> 100 µM (inactive)	13.6 µM (inactive)	21.9 µM (inactive)	39.2 µM (inactive)	40.7 µM (inactive)	30.5 µM (inactive)	13.9 µM (inactive)	12.3 µM (inactive)	24.8 µM (inactive)	18.8 µM (inactive)	7.8 µM (inactive)	3.68 µM (inactive)	21.8 µM (inactive)	17.8 µM (inactive)	17 µM (inactive)	12.9 µM (inactive)	86.9 µM (inactive)	15.7 µM (inactive)	65.2 µM (inactive)	15.2 µM (inactive)

— ChEMBL document CHEMBL1201862, “PubChem BioAssay data set” (2004)
